Assay results published in patent publication US20080206770A1, “SCREENING METHODS USED TO IDENTIFY COMPOUNDS THAT MODULATE SKIN STROMAL CELLS (FIBROBLASTS) ABILITY TO MODIFY FUNCTION OF EXTRACELLULAR MATRIX” (priority 2007, published 2008).

Tested on: skin fibroblasts from 30 individuals
Assay: Combined score of expression stimulation of 5 genes in fibroblast isolates (FIG. 1)
Format: cell-based, human
Conditions: 24 hour treatment, atRA 10^-7 M, Matrixyl 1 μM, KappaElastin 1 μM
Procedure: Human dermal fibroblasts were grown in DMEM cell culture media containing 10% fetal bovine serum and 1% penicillin/streptomycin (Invitrogen). For all experiments, third-passage fibroblasts were used one day after reaching confluence. […] After 24 hour treatment RNA and protein was isolated and analyzed for the expression of components of ECM and transcriptional regulators.
Total RNA from various human tissues was purified using RNAwiz (Ambion, USA) and subjected to subsequent DNase I treatment using the DNA-Free kit (Ambion). Total RNA from cancer cells was purified by using 4PCRmini kit (Ambion). First-strand cDNAs were synthesized with Superscript III reverse transcriptase (Invitrogen, USA) and 5 μg of total RNA using oligo d(T) priming in a final reaction volume of 50 μL
The cDNA was amplified by PCR using the 2.5 U Hot-Firepol (Solis BioDyne, Estonia) and buffer Yellow (Naxo, Estonia). Reaction was performed in a 10 ul volume, using 0.5 ul cDNA as a template. Following primer sets were designed for this study:
The combined score of expression stimulation of 5 genes was calculated and blotted for each fibroblast isolate. […] This biological variation provides a good biological rational to use molecular diagnostics for matching cosmetics product and skin cells of specific individual (personalized cosmetics).

## palmitoys pentapeptide-3 [Matrixyl]
  combined score of expression stimulation of 5 genes (COL1A1, COL2A1, elastin, proteoglycan, TIMP1) per fibroblast isolate: 3 groups of fibroblasts that have different response
